Where two headings read alike, the source gives them in different places.
Experiments:
[1] = target: T1, QR2 (Homo sapiens, UniProt P16083); assay: QR2 steady-state kinetics; type: biochemical; details: for Ki: read-out: QR2 Ki, Table 1 value; for Inhibition of QR2: up to 100 μM compound, 5 nM QR2, 100 μM NMeH, 30 μM menadione
T1 sequence (P16083 1-231): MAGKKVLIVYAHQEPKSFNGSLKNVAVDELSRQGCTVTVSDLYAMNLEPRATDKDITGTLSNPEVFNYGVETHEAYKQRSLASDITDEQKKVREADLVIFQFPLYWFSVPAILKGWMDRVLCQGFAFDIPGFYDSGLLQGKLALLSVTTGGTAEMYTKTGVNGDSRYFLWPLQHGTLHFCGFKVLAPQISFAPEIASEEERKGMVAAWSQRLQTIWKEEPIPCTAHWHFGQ

[2] = target: T1, QR2; assay: ITC titration of resveratrol into QR2; type: binding
[3] = target: T2, COX-1 (Ovis aries, UniProt P05979); assay: Inhibition of COX-1 activity by quantification of PGE2; type: biochemical
T2 sequence (P05979 25-600): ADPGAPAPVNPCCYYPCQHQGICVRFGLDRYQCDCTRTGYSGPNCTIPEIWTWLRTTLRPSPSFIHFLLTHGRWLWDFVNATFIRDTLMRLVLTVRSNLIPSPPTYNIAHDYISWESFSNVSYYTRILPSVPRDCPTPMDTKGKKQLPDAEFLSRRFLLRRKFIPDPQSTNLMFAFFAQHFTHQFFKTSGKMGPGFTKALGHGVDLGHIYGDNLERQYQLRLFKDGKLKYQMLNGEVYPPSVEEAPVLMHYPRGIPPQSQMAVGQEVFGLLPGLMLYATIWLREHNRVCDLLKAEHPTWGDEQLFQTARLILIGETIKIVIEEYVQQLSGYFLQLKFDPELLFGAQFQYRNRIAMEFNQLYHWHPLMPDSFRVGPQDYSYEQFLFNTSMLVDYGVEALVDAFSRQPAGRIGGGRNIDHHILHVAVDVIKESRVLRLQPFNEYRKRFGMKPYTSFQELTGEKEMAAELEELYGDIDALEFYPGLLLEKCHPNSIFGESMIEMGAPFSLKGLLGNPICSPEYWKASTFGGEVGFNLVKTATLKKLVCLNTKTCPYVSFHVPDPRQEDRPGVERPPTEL

[4] = tested on: QR1; assay: Effect of resveratrol on QR1 activity in Hepa 1c1c7 cells; type: cell-based; details: Hepa 1c1c7 mouse hepatoma cells, 48 h
[5] = target: T3, SIRT1 (Homo sapiens, UniProt Q96EB6); assay: ITC titration of resveratrol into SIRT1; type: binding; details: 20 μM SIRT1, no substrates
T3 sequence (Q96EB6 1-747): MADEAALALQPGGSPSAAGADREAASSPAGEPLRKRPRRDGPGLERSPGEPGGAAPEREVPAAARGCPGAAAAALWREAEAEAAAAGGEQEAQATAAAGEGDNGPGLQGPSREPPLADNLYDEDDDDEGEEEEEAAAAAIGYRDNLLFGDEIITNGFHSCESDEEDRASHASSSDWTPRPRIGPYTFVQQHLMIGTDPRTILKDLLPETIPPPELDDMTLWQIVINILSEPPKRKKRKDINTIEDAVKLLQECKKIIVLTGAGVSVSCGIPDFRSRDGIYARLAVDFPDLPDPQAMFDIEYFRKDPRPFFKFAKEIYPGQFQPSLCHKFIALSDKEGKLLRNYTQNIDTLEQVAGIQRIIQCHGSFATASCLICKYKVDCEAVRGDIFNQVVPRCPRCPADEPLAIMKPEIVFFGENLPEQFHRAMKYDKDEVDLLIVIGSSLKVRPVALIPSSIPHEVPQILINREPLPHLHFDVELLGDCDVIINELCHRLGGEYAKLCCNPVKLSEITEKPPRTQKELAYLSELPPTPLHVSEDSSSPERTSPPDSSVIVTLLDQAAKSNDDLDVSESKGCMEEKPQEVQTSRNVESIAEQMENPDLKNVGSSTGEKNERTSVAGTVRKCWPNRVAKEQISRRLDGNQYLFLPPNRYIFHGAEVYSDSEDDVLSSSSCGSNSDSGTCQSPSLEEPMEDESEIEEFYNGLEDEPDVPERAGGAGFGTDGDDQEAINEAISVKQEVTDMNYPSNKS

[6] = target: T4, COX-2 (Homo sapiens, UniProt P35354); assay: Inhibition of COX-2 activity by quantification of PGE2; type: biochemical
T4 sequence (P35354 18-604): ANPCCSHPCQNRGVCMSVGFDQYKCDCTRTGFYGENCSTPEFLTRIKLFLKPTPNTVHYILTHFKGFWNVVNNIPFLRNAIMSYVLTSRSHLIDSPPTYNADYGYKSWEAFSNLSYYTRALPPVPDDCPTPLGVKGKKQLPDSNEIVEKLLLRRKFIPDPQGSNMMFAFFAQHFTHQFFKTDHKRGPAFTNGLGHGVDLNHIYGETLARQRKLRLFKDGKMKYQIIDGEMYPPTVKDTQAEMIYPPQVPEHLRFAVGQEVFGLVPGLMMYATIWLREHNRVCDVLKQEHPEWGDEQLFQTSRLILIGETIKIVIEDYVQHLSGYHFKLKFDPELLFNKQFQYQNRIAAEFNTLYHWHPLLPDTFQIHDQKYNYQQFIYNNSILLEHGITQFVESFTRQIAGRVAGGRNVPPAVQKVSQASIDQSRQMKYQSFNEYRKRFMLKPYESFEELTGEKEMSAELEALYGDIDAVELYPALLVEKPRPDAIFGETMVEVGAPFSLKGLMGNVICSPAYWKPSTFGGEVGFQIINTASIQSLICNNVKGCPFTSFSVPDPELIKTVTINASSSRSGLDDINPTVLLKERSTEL

[7] = after an oral dose of pure resveratrol; cited from earlier work

SMILES: Oc1ccc(/C=C/c2cc(O)cc(O)c2)cc1 [Resveratrol, 3,5, 4′-trans-trihydroxystilbene]
- QR2 Ki, uncompetitive against menadione ([1]; varied menadione, NMeH 100 μM): 0.9 ± 0.1 µM
- ΔH of binding to QR2 [2]: –14 kcal/mol
- TΔS of binding to QR2 ([2]; as printed in Figure 6 legend): 16.3 kJ/mol
- N (ITC binding stoichiometry, QR2) ([2]; single binding site model): 0.9
- IC50 [3]: 1.1 ± 0.44 µM
- Effect on QR1 activity [4]: only a weak activator
- Binding to SIRT1 by ITC [5]: no detectable change in heat

SMILES: O=C(O)[C@H]1O[C@@H](Oc2cc(O)cc(/C=C/c3ccc(O)cc3)c2)[C@H](O)[C@@H](O)[C@@H]1O [Resveratrol-3-O-glucuronide, resveratrol-3-O-glucuronide]
- IC50 ([3]; read-out: COX-1 IC50, PGE2 produced from arachidonic acid): 150 ± 5.8 µM

SMILES: O=S(=O)(O)Oc1cc(O)cc(C=Cc2ccc(O)cc2)c1 [Resveratrol-3-O-sulfate, resveratrol-3-O-sulfate]
- Ki [1]: > 100 µM
- Inhibition of QR2 [1]: cannot detect any inhibitory activity
- IC50 [3]: 68 ± 2.8 µM
- IC50 [6]: > 300 µM

SMILES: O=S(=O)(O)Oc1ccc(C=Cc2cc(O)cc(O)c2)cc1 [Resveratrol-4′-O-sulfate, resveratrol-4′-O-sulfate]
- Ki [1]: > 100 µM
- Inhibition of QR2 [1]: cannot detect any inhibitory activity
- IC50 [3]: 5.1 ± 0.55 µM
- IC50 [6]: 2.5 ± 0.35 µM
- Human plasma concentration [7]: 2 to 10 µM

Reference: PMC3265359 (Biochemical Journal, 2010)
